Source: patent US6719976B1, “Peptide-based immunotherapeutic agent for treating allergic diseases” (Meiji Milk Products Co., Ltd., priority 1996, dated 2004)

Columns and labels:
[1] = test system: Cry j 1-specific T cell line; test: Reactivity of Cry j 1-specific T cell line; format: cell-based, human; conditions: from patients with cedar pollinosis
Source text: (§1) Two peptides (Cha o 1 #8-Cry j 1 #22 core, Cha o 1 #32-Cry j 1 #22 core) were synthesized by joining Peptide No. 8 (p71-90: […] SEQ ID NO. 11) which is a T cell epitope of hinoki pollen allergen Cha o 1 (Japanese Patent Application N. Hei. 8-15327), or Peptide No. 32 ([…]: […] SEQ ID NO. 12) to Cry j 1 #22 core sequence “FIKRVSNVI”(SEQ ID NO. 7) obtained in Example 14 using a peptide synthesizer (PSSM-8, Shimadzu Seisakusho Ltd.). An RR sequence was inserted between Cha o 1 #8 and Cry j 1 #22 core and between Cha o 1 #32 and Cry j 1 #22 core, that is, Cha o 1 #8-Cry j 1 #22 core (SEQ NO: 4) and Cha o 1 #32-Cry j 1 #22 core (SEQ NO: 5).
(§2) A Cry j 1-specific T cell line and a Cha o 1-specific T cell line were prepared from the patients with cedar pollinosis and hinoki pollinosis, respectively. […] However, these T cell lines all react with the multi-epitope peptide of SEQ NO: 4 and with the multi-epitope peptide of SEQ NO: 5.

[2] = test system: Cha o 1-specific T cell line; test: Reactivity of Cha o 1-specific T cell line; format: cell-based, human; conditions: from patients with hinoki pollinosis
Source text: as §1, §2

T cell clone PJ7-9 = test: Proliferation response and cytokine production of T cell clone PJ7-9 to analog peptides; format: cell-based, human; conditions: unsubstituted 13-residue peptide regarded as 100%
Source text: Two clones, PJ7-9 and PB10-18, were employed to see if the activity of T cells can be altered by substituting the amino acids of T cell epitope peptide of the Cry j 1 #22 core. T cell clones PJ 7-9 and PB10-12 which react with Cry j 1 Peptide No. 22 p106-120 are restricted by DRB5*0101 and recognize the nine residues of the Cry j 1 #22 core. Each of the nine amino acids residues in the peptides p108-120 (VFIKRVSNVIIHG SEQ ID NO. 13) of 13 residues including the nine residues were substituted with an homologous amino acid and a non-homologous amino acid to produce analog peptides (FIGS. 17 and 18). The reactivity of T cell clones PJ 7-9 and PB 10-18 with these analog peptides was examined in terms of the uptake of [^3H] thymidine. The concentration of cytokine in the reaction solution was measured using a cytokine assay kit manufactured by R & D Systems. The production of IFN-γ, IL-4, IL-2, and IL-5 in the supernatant and the uptake of [^3H] thymidine obtained by reacting the peptide of 13 residues with no amino acid substitution were regarded as 100%. […] Accordingly, the amino acids located in these positions are considered to be important for forming the complex of HLA and T cell receptor molecules via the peptide. […] For the PB 10-18 clone, the uptake of [3H] thymidine is suppressed by substitution of amino acid No. 1, 2, 3, 4, 6, 7, or 8 of Cry j 1 #22 core. The amino acids located in these positions are considered to be important for forming the complex of HLA and T cell receptor molecules via the peptide. It is further observed that the IL-2 production is suppressed by substitution of amino acid No. 6, 7, or 8, as compared to IL-5 production (FIG. 18).

human IgE antibody = test: Reactivity of the multi-epitope peptides with human IgE antibody (fluorescence plate assay); format: binding; conditions: 21 tested patients with cedar pollinosis
Experimental: The six multi-epitope peptides (C.A.#1 through C.A.#6) obtained in Example 6 were dissolved in 0.2 M acetate buffer solution (pH 4.5). The solution was dispensed in quantities of 0.1 ml/well in a black plate (manufactured by Dainihon Pharmaceutical Co., Ltd.) then allowed to stand at 4° C. overnight. After the antigen solution was removed, the wells were washed three times with a washing solution and the serum (4-fold dilution) from 29 patients with cedar pollinosis and healthy subjects were each added to separate wells. The system was then reacted at 37° C. for 4 hours. After the sera were removed, the wells were washed three times with a washing solution then reacted with anti-human IgE antibody (made by Pharmacia Inc.) at room temperature overnight. After washing three times with a washing solution, a substrate solution containing 0.1 mM 4-methylumbelliferyl-, β-D-galacto-pyranoside/0.01 M phosphate buffer (pH 7.0), 0.1 M NaCl, 1 mM MgCl2, 0.1% NaN, and 0.1% BSA was added, and the solution was incubated at 37° C. for 2 hours. A solution of 0.1 M glycine/NaOH (pH 10.3) was added to the wells to terminate the reaction. Fluorescent intensity was measured using a fluorophotometer (Labsystems). For positive control to each multi-epitope peptide, biotin-labeled rabbit anti-d epitope IgG and peroxidase-labeled streptoavidin (made by Pierce Inc.) were reacted.

peripheral lymphocytes = test: Proliferation response of peripheral lymphocytes induced by multi-epitope peptide; format: cell-based, human
Experimental: Peripheral lymphocytes derived from the patients with cedar pollinosis or from healthy subjects were suspended in RPMI-1640 culture medium supplemented with 10% human sera. The suspension was distributed in each well of a 96-well culture plate with a round bottom in a concentration of 2.5×10^5 cells/200 μl. The multi-epitope peptide represented by SEQ NO: 1, either Cry j 1 or Cry j 2, was added to each well to a final concentration of 0.001 to 20 μg/ml of the multi-epitope peptide, 50 μg/ml of Cry j 1 or 2 μg/ml of Cry j 2. The plate was incubated for 6 days. After 0.5 μCi [^3H] thymidine was added to the medium, incubation was continued for a further 16 hours. After the cells were harvested on a glass filter using a cell harvester, the level of [^3H] thymidine taken up into the cells was determined using a liquid scintillation counter.
Peripheral lymphocytes from 17 patients with cedar pollinosis and two healthy subjects were stimulated by 10 μg/ml of the multi-epitope peptide to evaluate T cell response. […] In the 17 patients, a maximum [^3H] thymidine uptake of 9,652 cpm was observed. When [^3H] thymidine uptake of peripheral lymphocytes without antigen stimulation is regarded as 1, the uptake of [^3H] thymidine by peripheral lymphocytes in the presence of an antigen is expressed by a stimulation index (SI). Upon identification of T cell epitopes, SI>2 is regarded to be positive. Similarly, SI>2 is judged to be proliferation responsive to the peptide. […] From the results, the peptide-based immunotherapy is effective when administered to 76.5% of the cedar pollinosis patients.

T cell clones = test: Recognizing the T cell epitopes in the multi-epitope peptide C.A.#4 by T cell clones; format: cell-based, human; conditions: C.A.#4 10 μg/ml
Experimental: The antigenic peptide constituting the multi-epitope peptide C.A.#4 obtained in Example 6 was examined to determine if the antigenic peptide actually functions as a T cell epitope.
On a 96-well micro culture plate, a mixture of 5×10^4 cells of the autologous B cell line previously treated with mitomycin C and 2×10^4 cells of the T cell clone was incubated for 2 days in 0.2 ml 15% serum-supplemented RPMI-1640 medium, together with, as an antigen, either 50 μg/ml of Cry j 1 and 2 μg/ml of Cry j 2, each antigenic peptide constituting the multi-epitope peptide C.A.#4 or 10 μg/ml C.A.#4 multi-epitope peptide produced by gene expression. After 0.5 μCi [^3H] thymidine was added to the medium, incubation was continued for a further 16 hours. After the cells were harvested on a glass filter using a cell harvester, the level of [^3H] thymidine taken up into the cells was determined using a liquid scintillation counter.

Molecule: IFSKNLNIKLNMPLYIAGNK [Cha o 1 #8]
- reactivity of Cry j 1-specific T cell line [1]: does not react with
- reactivity of Cha o 1-specific T cell line [2]: reacts with

Molecule: SEQ NO: 4: Cha o 1 #8 joined to Cry j 1 #22 core with an RR sequence inserted (IFSKNLNIKLNMPLYIAGNKRRFIKRVSNVI; listed as Cryptomeria japonica)
- reactivity of Cry j 1-specific T cell line [1]: react with
- reactivity of Cha o 1-specific T cell line [2]: react with

Molecule: SIKRVSNVI (listed as Cryptomeria japonica) [Cry j 1 #22 core with the first amino acid F substituted with S]
- IFN-γ production (T cell clone PJ7-9): marked increase
- IL-2 production (T cell clone PJ7-9): marked increase
- uptake of [3H] thymidine (T cell clone PJ7-9): no change

Molecule: SSGKNEGTNIYNNNEAFKVE [Cha o 1 #32]
- reactivity of Cry j 1-specific T cell line [1]: does not react with
- reactivity of Cha o 1-specific T cell line [2]: reacts with

Molecule: FIKRVSNVI [Cry j 1 #22 core]
- reactivity of Cry j 1-specific T cell line [1]: reacts with
- reactivity of Cha o 1-specific T cell line [2]: does not react with

Molecule: SEQ NO: 5: Cha o 1 #32 joined to Cry j 1 #22 core with an RR sequence inserted (SSGKNEGTNIYNNNEAFKVERRFIKRVSNVI; listed as Cryptomeria japonica)
- reactivity of Cry j 1-specific T cell line [1]: react with
- reactivity of Cha o 1-specific T cell line [2]: react with

B1: SEQ NO: 2: joining p213-225 and p108-120 of Cry j 1, p182-200 and p79-98 of Cry j 2, p80-95 of Cry j 1, p66-80 of Cry j 1 (peptide, listed as Cryptomeria japonica)
chain: MKVTVAFNQFGPNRRVFIKRVSNVIIHGRRIDIFASKNFHLQKNTIGTGRRWKNNRIWLQFAKLTGFTLMGRRLKMPMYIAGYKTFDGRRVDGIIAAYQNPASWK
- reaction with the IgE antibody of the patients (human IgE antibody): did not react
- stimulation of peripheral lymphocyte samples (peripheral lymphocytes; 21 tested patients with cedar pollinosis): stimulated all the peripheral lymphocyte samples

B2: SEQ NO: 1: multi-epitope peptide containing selected T cell epitopes of Cry j 1 and Cry j 2 joined via Arg-Arg (peptide, listed as Cryptomeria japonica)
chain: MKVTVAFNQFGPNRRVFIKRVSNVIIHGRRIDIFASKNFHLQKNTIGTGRRISLKLTSGKIASRRVDGIIAAYQNPASWK
- patients with proliferation response (SI>2) (peripheral lymphocytes; 13 out of the 17 patients, 10 μg/ml): 76.5%
- maximum [3H] thymidine uptake (peripheral lymphocytes; 17 patients, 10 μg/ml): 9,652 cpm
- proliferation response of peripheral lymphocytes (peripheral lymphocytes; one patient and two healthy subjects, 0.001 to 20 μg/ml): no proliferation response
- patients whose peripheral lymphocytes showed proliferation response (peripheral lymphocytes; six patients with cedar pollinosis, 0.001 to 20 μg/ml): five out of six
- T cell proliferation response of peripheral lymphocytes from healthy subjects (peripheral lymphocytes; two healthy subjects, 10 μg/ml): No response to T cell proliferation was observed

B3: a-Arg-Arg-b-Arg-Arg-d-Arg-Arg-e-Arg-Arg-c (peptide)
peptide: KSMKVTVAFNQFGPNRRPCVFIKRVSNVIIHGRRAPRDSPNTDGIDIFASKNFHRRKDIKLSDISLKLTSGKIASCRRPCQPHFTFKVDGIIA
notes: produced by gene expression
- proliferation response of T cell clone PB14-19 (recognizes Cry j2 p341-355) (T cell clones): somewhat weak
- proliferation response of the T cell clones recognizing the respective epitope (T cell clones; clones PB8-3, PB8-34, PB4-22, PB14-5, PB14-3): comparable to that of each of the peptides
